Drawing on US6794396B2, “Substituted pyridines useful for inhibiting cholesteryl ester transfer protein activity” (Pharmacia Corporation, priority 1998, dated 2004), this text covers IC50 for 52 molecules.

A value given as a limit tells only on which side of the number the result lay.

What is called IC50 is the concentration needed to halve the response being measured.

For the first assay, the target named is T1, CETP (Homo sapiens, UniProt P11597).
T1 construct: made in house; host or cells: CHO cells (serum-free conditioned medium)
T1 sequence (P11597 18-493): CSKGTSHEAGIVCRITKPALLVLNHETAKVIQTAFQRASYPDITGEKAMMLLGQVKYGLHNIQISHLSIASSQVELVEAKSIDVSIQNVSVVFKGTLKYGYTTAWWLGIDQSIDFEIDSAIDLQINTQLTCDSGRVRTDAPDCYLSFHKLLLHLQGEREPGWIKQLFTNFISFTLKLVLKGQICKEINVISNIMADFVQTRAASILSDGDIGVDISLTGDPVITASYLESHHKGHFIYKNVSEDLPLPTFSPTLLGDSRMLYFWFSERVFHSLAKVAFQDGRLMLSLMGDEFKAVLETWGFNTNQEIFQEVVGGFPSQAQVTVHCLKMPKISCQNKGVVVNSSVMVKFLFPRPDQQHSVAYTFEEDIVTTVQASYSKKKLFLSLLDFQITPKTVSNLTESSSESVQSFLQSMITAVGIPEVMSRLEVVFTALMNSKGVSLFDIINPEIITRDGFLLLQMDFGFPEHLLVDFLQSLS
Kind of assay: CETP activity in vitro: transfer of [3H]CE from HDL donor to LDL acceptor particles. The following applies: IC50, Table 7, compounds of formula T-7. Type of assay: biochemical. In short, it runs like this:
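CETP from conditioned medium of CETP-transfected CHO cells incubated with [3H]CE-labelled HDL donor and LDL acceptor, pH 7.4 Tris buffer with NaCl, EDTA and 1% BSA, 2 h at 37 °C. LDL precipitated with dextran sulfate/MgCl2, filtered, and transferred radioactivity counted; IC50 reported.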
Molecule `COC(=O)c1c(C(F)F)nc(C(F)(F)F)c(SCc2cccc(Br)c2)c1CC(C)C` [Compound 229] registered an IC50 of 50 µM. Still for that read-out and setting: in the case of `COC(=O)c1c(C(F)F)nc(C(F)(F)F)c(SCc2cccc(OC)c2)c1CC(C)C` [Compound 231] it was 50 µM.

Staying with this assay, now noted: Table 6, compounds of formula T-6; read-out: IC50.
Regarding `COC(=O)c1c(C(F)F)nc(C(F)(F)F)c(CSc2ccccn2)c1CC(C)C` [Compound 216, Methyl 5-[(2-Pyridyl)thiomethyl]-2-(difluoromethyl)-4-(2-methylpropyl)-6-(trifluoromethyl)-3-pyridinecarboxylate], the concentration for half-maximal inhibition (IC50) was 40 µM.

Regarding `COC(=O)c1c(C(F)F)nc(C(F)(F)F)c(CSc2ccccc2Br)c1CC(C)C` [Compound 217, Methyl 5-[(2-bromophenyl)thiomethyl]-2-(difluoromethyl)-4-(2-methylpropyl)-6-(trifluoromethyl)-3-pyridinecarboxylate], the concentration for half-maximal inhibition (IC50) amounted to 50 µM.

The assay is the same for the next values; noted with them: Table 7, compounds of formula T-7; read-out: IC50.
Take `COC(=O)c1c(C(F)F)nc(C(F)(F)F)c(SCc2ccccc2)c1CC(C)C` [Compound 219]: the IC50 amounted to 25 µM. On to `COC(=O)c1c(C(F)F)nc(C(F)(F)F)c(SCc2ccc(Cl)cc2)c1CC(C)C` [Compound 220], for which the IC50 is 20 µM.

Turning to `COC(=O)c1c(C(F)F)nc(C(F)(F)F)c(SCc2ccc(OC)cc2)c1CC(C)C` [Compound 221], the IC50 came out at 40 µM.

For `COC(=O)c1c(C(F)F)nc(C(F)(F)F)c(SCc2ccc(OCc3ccccc3)c(OCc3ccccc3)c2)c1CC(C)C` [Compound 222], the IC50 worked out at 15 µM. For the molecule `COC(=O)c1c(C(F)F)nc(C(F)(F)F)c(SCc2ccccc2[N+](=O)[O-])c1CC(C)C` [Compound 223], the IC50 was 50 µM. Regarding `COC(=O)c1c(C(F)F)nc(C(F)(F)F)c(SCc2ccc(OCc3ccccc3)cc2)c1CC(C)C` [Compound 224], the IC50 worked out at 25 µM. Consider `COC(=O)c1c(C(F)F)nc(C(F)(F)F)c(SCc2ccc(-c3ccccc3)cc2)c1CC(C)C` [Compound 225], for which the IC50 stood at 10 µM.

Take `COC(=O)c1c(C(F)F)nc(C(F)(F)F)c(SCc2ccc3c(c2Cl)OCO3)c1CC(C)C` [Compound 226, Methyl 5-[(2-Chloro-3,4-methylenedioxyphenyl)methylthio]-2-(difluoromethyl)-4-(2-methylpropyl)-6-(trifluoromethyl)-3-pyridinecarboxylate]: the IC50 came to 60 µM. For the molecule `COC(=O)c1c(C(F)F)nc(C(F)(F)F)c(SCc2c3ccccc3cc3ccccc23)c1CC(C)C` [Compound 227], the IC50 stood at 30 µM. Still for that read-out and setting: in the case of `COC(=O)c1c(C(F)F)nc(C(F)(F)F)c(SCc2cccc([N+](=O)[O-])c2)c1CC(C)C` [Compound 230] it was 50 µM; in that of `COC(=O)c1c(C(F)F)nc(C(F)(F)F)c(SCc2ccccn2)c1CC(C)C` [Compound 233, Methyl 5-[(2-pyridyl)methylthio]-2-(difluoromethyl)-4-(2-methylpropyl)-6-(trifluoromethyl)-3-pyridinecarboxylate], 60 µM; in that of `COC(=O)c1c(C(F)F)nc(C(F)(F)F)c(SCc2ccc(C(F)(F)F)cc2C(F)(F)F)c1CC(C)C` [Compound 234], 20 µM. Take `COC(=O)c1c(C(F)F)nc(C(F)(F)F)c(SCc2ccc(OC(F)(F)F)cc2)c1CC(C)C` [Compound 235]: the IC50 was determined as 30 µM. With `COC(=O)c1c(C(F)F)nc(C(F)(F)F)c(SCc2ccc(Cl)cc2Cl)c1CC(C)C` [Compound 237], the IC50 stood at 30 µM.

For the molecule `COC(=O)c1c(C(F)F)nc(C(F)(F)F)c(SCc2ccccc2Br)c1CC(C)C` [Compound 239], the IC50 turned out to be 45 µM. Turning to `COC(=O)c1c(C(F)F)nc(C(F)(F)F)c(SCc2ccc3ccccc3n2)c1CC(C)C` [Compound 241, Methyl 5-[(2-quinolinyl)methylthio]-2-(difluoromethyl)-4-(2-methylpropyl)-6-(trifluoromethyl)-3-pyridinecarboxylate], the IC50 turned out to be 50 µM. Same read-out and setting: in the case of `COC(=O)c1c(C(F)F)nc(C(F)(F)F)c(SCc2cc(Cl)cc(Cl)c2)c1CC(C)C` [Compound 243] it was 50 µM; in that of `COC(=O)c1c(C(F)F)nc(C(F)(F)F)c(SCc2c(F)c(F)c(F)c(F)c2F)c1CC(C)C` [Compound 244], 50 µM. With `COC(=O)c1c(C(F)F)nc(C(F)(F)F)c(SCc2ccc3c(c2)C(C)(C)CCC3(C)C)c1CC(C)C` [Compound 245, Methyl 5-[(1,2,3,4-tetrahydro-1,1,4,4-tetramethyl-6-naphthyl)methylthio]-2-(difluoromethyl)-4-(2-methyl-propyl)-6-(trifluoromethyl)-3-pyridinecarboxylate], the IC50 was 30 µM. Take `COC(=O)c1c(C(F)F)nc(C(F)(F)F)c(SCc2cc(Cl)cc3c2OCOC3)c1CC(C)C` [Compound 246, Methyl 5[(6-chloro-1,3-benzodioxan-8-yl)methylthio]-2-(difluoromethyl)-4-(2-methylpropyl)-6-(trifluoromethyl)-3-pyridinecarboxylate]: the IC50 is 30 µM.

Still in this assay, the particulars now being: Table 8; read-out: IC50.
Regarding `Fc1ccc(-c2c(COCc3ccccc3)c(C(F)(F)F)nc(C(F)F)c2C(F)c2ccc(C(F)(F)F)cc2)cc1` (stereo not shown) [Compound 248], the IC50 is 77 µM. `OCc1c(C(F)(F)F)nc(C(F)F)c(C(F)c2ccc(C(F)(F)F)cc2)c1-c1ccc(F)cc1` (stereo not shown) [Compound 249]: the 50% inhibitory concentration (IC50) was 5 µM. As to `CCOC(=O)c1c(C(F)(F)F)nc(C(F)F)c(C(F)c2ccc(Cl)cc2)c1-c1ccc(F)cc1` (stereo not shown) [Compound 250], the IC50 was found to be 40 µM.

Turning to `O=Cc1c(C(F)F)nc(C(F)(F)F)c(C(F)c2ccc(C(F)(F)F)cc2)c1-c1ccc(F)cc1` (stereo not shown) [Compound 251], the IC50 is 7 µM. Same read-out and setting: in the case of `O=Cc1c(C(F)F)nc(C(F)(F)F)c(COCc2ccccc2)c1-c1ccc(F)cc1` [Compound 252] it was 4.5 µM. Take `OCc1c(C(F)(F)F)nc(C(F)F)c(C(F)c2ccc(C(F)(F)F)cc2)c1-c1ccc(F)cc1` (stereo not shown) [Compound 253]: the IC50 came to 19 µM. `CCOC(=O)c1c(C(F)(F)F)nc(C(F)F)c(C(F)c2ccc(Cl)cc2)c1-c1ccc(F)cc1` (stereo not shown) [Compound 254]: the IC50 came to 55 µM. For the molecule `O=C(c1ccc(Cl)cc1)c1c(C(F)(F)F)nc(C(F)F)c(CO)c1-c1ccccc1` [Compound 258], the IC50 was 15 µM.

On to `O=C(c1ccc2ccccc2c1)c1c(C(F)(F)F)nc(C(F)F)c(CO)c1-c1ccccc1` [Compound 259], for which the IC50 stood at 60 µM. As for `CC(C)c1ccc(C(=O)c2c(C(F)(F)F)nc(C(F)F)c(CO)c2-c2ccccc2)cc1` [Compound 263], the IC50 turned out to be 40 µM. Consider `O=C(c1ccc(Cl)cc1)c1c(C(F)(F)F)nc(C(F)F)c(CO)c1-c1ccccc1` [Compound 264], for which the concentration for half-maximal inhibition (IC50) is 30 µM. Regarding `CC(C)c1ccc(C(F)c2c(C(F)(F)F)nc(C(F)F)c(CO)c2-c2ccccc2)cc1` (stereo not shown) [Compound 265], the IC50 is 60 µM. Take `CC(C)c1ccc(C(O)c2c(C(F)(F)F)nc(C(F)F)c(CO)c2-c2ccccc2)cc1` (stereo not shown) [Compound 266]: the IC50 is more than 100 µM. The same measure, in the same setting: in the case of `CCOC(=O)c1c(C(F)(F)F)nc(C(F)F)c(C(F)c2ccc(Cl)cc2)c1-c1ccccc1` (stereo not shown) [Compound 267] it was 70 µM. In the case of `CCOC(=O)c1c(C(F)(F)F)nc(C(F)F)c(C(F)c2ccc3ccccc3c2)c1-c1ccccc1` (stereo not shown) [Compound 268], the IC50 is 70 µM. For the molecule `OCc1c(C(F)F)nc(C(F)(F)F)c(C(O)c2ccc(Cl)cc2)c1-c1ccccc1` (stereo not shown) [Compound 269], the concentration for half-maximal inhibition (IC50) was more than 100 µM. For `OCc1c(C(F)F)nc(C(F)(F)F)c(C(O)c2ccc3ccccc3c2)c1-c1ccccc1` (stereo not shown) [Compound 270], the IC50 was more than 100 µM. In the case of `CCOC(=O)c1c(C(F)(F)F)nc(C(F)F)c(C(F)c2ccc(C(C)C)cc2)c1-c1ccccc1` (stereo not shown) [Compound 271], the IC50 worked out at 70 µM.

With `CCOC(=O)c1c(C(F)(F)F)nc(C(F)F)c(C(O)c2ccc(Cl)cc2)c1-c1ccccc1` (stereo not shown) [Compound 272], the concentration for half-maximal inhibition (IC50) stood at 90 µM. As to `CC(C)c1ccc(Cc2c(C(F)F)nc(C(F)(F)F)c(C=O)c2-c2ccccc2)cc1` [Compound 274], the IC50 came to 8 µM. For the molecule `CC(C)c1ccc(C(O)c2c(C(F)F)nc(C(F)(F)F)c(CO)c2-c2ccccc2)cc1` (stereo not shown) [Compound 275], the IC50 was more than 100 µM. Turning to `OC(c1ccc(C(F)(F)F)cc1)c1c(C(F)F)nc(C(F)(F)F)c(COCc2ccccc2)c1-c1ccc(F)cc1` (stereo not shown) [Compound 276], the IC50 is more than 100 µM. For the molecule `CCOC(=O)c1c(C(F)(F)F)nc(C(F)F)c(C(O)c2ccc3ccccc3c2)c1-c1ccccc1` (stereo not shown) [Compound 278], the IC50 worked out at 80 µM. On to `O=Cc1c(C(F)(F)F)nc(C(F)F)c(Cc2ccc3ccccc3c2)c1-c1ccccc1` [Compound 279], for which the IC50 was determined as 15 µM. As to `OCc1c(C(F)(F)F)nc(C(F)F)c(C(O)c2ccc3ccccc3c2)c1-c1ccccc1` (stereo not shown) [Compound 280], the half-maximal inhibitory concentration (IC50) is more than 100 µM.

`OCc1c(C(F)F)nc(C(F)(F)F)c(COCc2ccccc2)c1-c1ccc(F)cc1` [Compound 281]: the IC50 was more than 100 µM. Regarding `CC(C)CC(O)c1c(C(F)F)nc(C(F)(F)F)c(C(F)c2ccc(C(F)(F)F)cc2)c1-c1ccc(F)cc1` (stereo not shown) [Compound 283], the IC50 was found to be 38.7 µM. Same read-out and setting: in the case of `C=CC(O)c1c(C(F)F)nc(C(F)(F)F)c(C(=O)c2ccc(C(F)(F)F)cc2)c1-c1ccc(F)cc1` (stereo not shown) [Compound 284] it was 22.7 µM.
